According to patent US11357778B2, “Antagonist of the fibroblast growth factor receptor 3 (FGFR3) for use in the treatment or the prevention of skeletal disorders linked with abnormal activation of FGFR3” (INSTITUT NATIONAL DE LA SANTE ET DE LE RECHERCHE MEDICALE …, priority 2011, dated 2022):

How the values were obtained:
[1] = tested on: FGFR3Y373C, FGFR3K650E, FGFR3K650M, FGFR3G380R; test: Constitutive FGFR3 phosphorylation in HEK-293 cells transiently expressing activated FGFR3; format: cell-based, human; conditions: 10 μM, data not shown
Fgfr3^Y367C/+ femurs = test: Ex vivo culture of E16.5 embryonic femur explants, bone length; format: cell-based, mouse; conditions: for gain in femur length: Fgfr3^Y367C/+ femurs
Description: Six sets of ex vivo experiments were performed. Femur embryos at day E16.5 from WT (n=6) and Fgfr3^Y367C/+ (n=6) mice were used and incubated for 5 days in DMEM medium with antibiotics and 0.2% BSA (Sigma) supplemented with A31 or PD173074 (as control) at a concentration of 2 mM. Right femur was cultured in supplemented medium and compared with the left one cultured in control medium. Rib cage from E16.5 WT and Fgfr3^Y367C/+ mice embryos were isolated and stripped of all soft tissues. Primary chondrocytes were obtained from rib cages. The ribs were incubated in a pronase solution (Roche; 2 mg/ml) followed by a digestion in Collagenase A (Roche; 3 mg/ml) at 37° C. Isolated chondrocytes were plated out at a density of 2.105 cells in 6-well plates containing DMEM supplemented with 10% FCS and antibiotics, and were allowed to reach subconfluency. Cultures were supplemented with A31 or PD173074 (as control) at a concentration of 2 mM. Cells were treated with A31 (2 mM) PD173074 (as control) in serum-free DMEM supplemented with 0.2% BSA and harvested after 24 h. To establish the effect of the inhibitors, the right femur was cultured in supplemented medium and compared with the left one cultured in control medium The bone length was measured at the beginning (before treatment) and at the end of time course. Each experiment was repeated at least three times. The genotype of WT, Fgfr3^Y367C/+ and Fgfr3^−/− mice were determined by PCR of tail DNA as previously described (Pannier et al., Biochim Biophys Acta, 1792: 140-147, 2009). All experimental procedures and protocols were approved by the Animal Care and Use Committee.
Fgfr3^Y367C/+ mice display reduced length of long bones, broad femurs, a narrow trunk, short ribs and a slightly dome-shaped skull, closely resembling achondroplasia (FIGS. 3A and B). The inventors analyzed the effects of A31 on endochondral ossification in Fgfr3^Y367C/+ mice by using an ex vivo culture system for embryonic day 16.5 (E16.5) limb explants. […] After 5 days of culture, the increase in length of the treated mutant femurs was 2.6 times more than for that of WT.
Thus, embryonic femur explants were co-incubated with 150 nM of PD173074 for 5 days.
Embryonic femur explants were co-incubated 100 nM (10^−7M) or 1 μM (10^−6M) of BGJ-398 for 6 days.

[2] = tested on: Fgfr3^Y367C/+ growth plate; test: Histology of cultured femur growth plate (HES staining, type X collagen in situ hybridization); format: cell-based, mouse
Description: Limb explants were fixed after culture in 4% paraformaldehyde at 4° C., and placed in a staining solution for 45-60 minutes (0.05% Alizarin Red, 0.015% Alcian Blue, 5% acetic acid in 70% ethanol) or embedded in paraffin. Serial […] were stained with Hematoxylin-Eosin using standard protocols for histological analysis or were subjected to in situ hybridization or immunohistochemical staining. In situ hybridization using [S35]-UTP labeled antisense ribopropes for collagen X was carried out as previously described (Delezoide et al., Hum Mol Genet, 6, 1899-1906, 1997). Sections were counterstained with Hematoxylin. For immunohistochemistry, sections were stained with antibodies specific to FGFR3 (1:250 dilution; Sigma), anti PCNA (1:1000 dilution; Abcam), anti-KI67 (1:300; Abcam), anti-cyclin D1 (1:80 dilution; Santa Cruz) and anti-p57 (1:100 dilution; Santa Cruz) using the Dako Envision kit. Images were captured with an Olympus PD70-IX2-UCB microscope. […] The inventors evaluated the impact of A31 on the growth plate (FIG. 4A). […] Histological examinations using HES staining (FIG. 10A) and type X collagen labeling (FIG. 10B) were also carried out.

Fgfr3^Y367C/+ mice = test: Dwarfism mouse model, X-rays analysis of skeleton and body growth; format: in vivo; conditions: 10 days
Description: The effectiveness of PD173074 and BGJ-398 in attenuating the dwarfism phenotype of Fgfr3^Y367C/+ mice was assessed in viva. The mice were seven days of age at treatment initiation and received daily subcutaneous administration of 4.00 mg/kg PD173074 or of 1.66 mg/kg BGJ-398 for 10 days.
The effectiveness of PD173074 in attenuating the dwarfism phenotype of Fgfr3^Y367C/+ mice was assessed in vivo. The mice were seven days of age at treatment initiation and received daily subcutaneous administrations of 4.00 mg/kg of PD173074 for 10 days.
Seven days old mice received daily subcutaneous administrations of 1.66 mg/kg of BGJ-398 for 10 days.

In the case of `CCN1CCN(c2ccc(Nc3cc(N(C)C(=O)Nc4c(Cl)c(OC)cc(OC)c4Cl)ncn3)cc2)CC1` [BGJ-398, reference compound], the “constitutive FGFR3 receptor phosphorylation” value [1] is reported as “abolished receptor phosphorylation”, the “femur size over concentration (in words)” value (Fgfr3^Y367C/+ femurs; BGJ-398 100 nM to 1 μM, 6 days) is reported as “concentration-dependent increase” and the “gain in femur length” value (Fgfr3^Y367C/+ femurs; BGJ-398 100 nM, 6 days) is reported as 71.86%. The “chondrocyte morphology (HES staining)” value ([2]; BGJ-398 10^−6M) was “larger and more spherical”, the “size of the hypertrophic zone of the femur explants” value ([2]; BGJ-398, Fgfr3^Y367C/+ femur explants) was “increases” and the “type X collagen expression (in situ hybridization)” value ([2]; BGJ-398, Fgfr3^Y367C/+ growth plate) was “enhanced type X collagen expression”. The “dwarfism phenotype (X-rays)” value (Fgfr3^Y367C/+ mice; BGJ-398 1.66 mg/kg daily subcutaneous, from 7 days of age) was “Dramatic phenotypic changes”.

For `CCN(CC)CCCCNc1ncc2cc(-c3cc(OC)cc(OC)c3)c(NC(=O)NC(C)(C)C)nc2n1` [PD173074], the “gain in femur length” value (Fgfr3^Y367C/+ femurs; PD173074 150 nM, 5 days) was 77%, the body size (Fgfr3^Y367C/+ mice; PD173074 4.00 mg/kg daily subcutaneous) was “overall increase in body size” and the “dwarfism phenotype (X-rays, clinical features)” value (Fgfr3^Y367C/+ mice; PD173074 4.00 mg/kg daily subcutaneous, from 7 days of age) was “Amelioration in key relevant achondroplasia clinical features”.
